Laboratory results published in patent publication US20150105252A1, “SUBSTITUTED PYRAZOLES AS HERBICIDES” (E I DU PONT DE NEMOURS AND COMPANY, priority 2013, published 2015).

How the values were obtained:
barnyardgrass [1] = assay: Test A preemergence; format: in vivo, Echinochloa crus-galli; conditions: preemergence
Procedure, shortened: (§1)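 After sowing in a sand–loam mix, pots received compound preemergence by directed soil spray, or postemergence once plants reached the one- to two-leaf stage (2–10 cm). Formulation contained surfactant in a non-phytotoxic solvent. Injury was scored visually after ~10 greenhouse days, 0–100 scale.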

foxtail, giant [2] = assay: Test A preemergence; format: in vivo, Setaria faberii; conditions: preemergence
Procedure, shortened: as §1

morningglory = assay: Test A preemergence; format: in vivo, Ipomoea spp.; conditions: preemergence
Procedure, shortened: as §1

velvetleaf [3] = assay: Test A preemergence; format: in vivo, Abutilon theophrasti; conditions: preemergence
Procedure, shortened: as §1

velvetleaf [4] = assay: Test A postemergence; format: in vivo, Abutilon theophrasti
Procedure, shortened: as §1

barnyardgrass [5] = assay: Test B flood; format: in vivo, Echinochloa crus-galli; conditions: 250 g ai/ha, visual rating on 0 to 100 scale (0 no effect, 100 complete control), 13 to 15 days
Procedure, shortened: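 Each compound is applied to the floodwater of pots holding 2-leaf seedlings, water standing 3 cm over the soil throughout. Plants stay in a greenhouse 13 to 15 days before visual scoring against controls from 0 (no effect) to 100 (complete control).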

ryegrass, Italian = assay: Test C preemergence; format: in vivo, Lolium multiflorum; conditions: for Plant response rating (scale of 0 to 100), Ryegrass, Italian: Preemergence, 250 g ai/ha
Procedure, shortened: (§2)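 Scores of 0 (no effect) to 100 (complete control) were assigned by eye after 13–15 days, comparing treated pots with controls. Soil-applied (preemergence) treatments went onto seeds in loam and sand; foliar (postemergence) treatments onto 1- to 4-leaf plants in peat medium.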

corn = assay: Test C preemergence; format: in vivo, Zea mays; conditions: for Plant response rating (scale of 0 to 100), Corn: Preemergence, 250 g ai/ha
Procedure, shortened: as §2

crabgrass, large = assay: Test C preemergence; format: in vivo, Digitaria sanguinalis; conditions: for Plant response rating (scale of 0 to 100), Crabgrass, Large: Preemergence, 250 g ai/ha
Procedure, shortened: as §2

foxtail, giant [6] = assay: Test C preemergence; format: in vivo, Setaria faberii; conditions: for Plant response rating (scale of 0 to 100), Foxtail, Giant: Preemergence, 250 g ai/ha
Procedure, shortened: as §2

johnsongrass = assay: Test C preemergence; format: in vivo, Sorghum halepense; conditions: for Plant response rating (scale of 0 to 100), Johnsongrass: Preemergence, 250 g ai/ha
Procedure, shortened: as §2

ragweed = assay: Test C preemergence; format: in vivo, Ambrosia elation; conditions: for Plant response rating (scale of 0 to 100), Ragweed: Preemergence, 250 g ai/ha
Procedure, shortened: as §2

barnyardgrass [7] = assay: Test C preemergence; format: in vivo, Echinochloa crus-galli; conditions: for Plant response rating (scale of 0 to 100), Barnyardgrass: Preemergence, 250 g ai/ha
Procedure, shortened: as §2

oilseed rape = assay: Test C preemergence; format: in vivo, Brassica napus; conditions: for Plant response rating (scale of 0 to 100), Oilseed Rape: Preemergence, 250 g ai/ha
Procedure, shortened: as §2

[8] = 125 g ai/ha, visual injury, 0 to 100 scale, approx. 10 days
[9] = 500 g ai/ha, visual injury after approx. 10 days, 0 to 100 scale (0 no effect, 100 complete control)
[10] = postemergence, 125 g ai/ha, about 10 days, visual rating on 0 to 100 scale (0 no effect, 100 complete control)
[11] = preemergence, 31 g ai/ha, visual rating, scale 0 to 100 (0 no effect, 100 complete control), 13 to 15 days
[12] = preemergence, 62 g ai/ha, scale 0 to 100 (0 no effect, 100 complete control), 13 to 15 days
[13] = preemergence, 125 g ai/ha, scale 0 to 100, 0 is no effect, 100 is complete control
[14] = preemergence, 31 g ai/ha, scale 0 to 100 (0 no effect, 100 complete control), 13 to 15 days
[15] = preemergence, 125 g ai/ha, 13 to 15 days, scale 0 to 100, 0 = no effect, 100 = complete control

## CCCc1cc(C(=O)NCC(F)(F)F)nn1Cc1ccnc(C(F)(F)F)c1 [Compound 105]
Barnyardgrass [1]; [8]
  Barnyardgrass plant response rating: 100
Barnyardgrass [1]; [9]
  Barnyardgrass plant response rating: 100
foxtail, giant [2]; [8]
  Foxtail, Giant plant response rating: 100
foxtail, giant [2]; [9]
  Foxtail, Giant plant response rating: 100
morningglory; [8]
  Morningglory plant response rating: 100
morningglory; [9]
  Morningglory plant response rating: 100
Velvetleaf [3]; [8]
  Velvetleaf plant response rating: 100
Velvetleaf [3]; [9]
  Velvetleaf plant response rating: 100
Velvetleaf [4]; Postemergence, 500 g ai/ha, visual rating after approx. 10 days, 0 to 100 scale (0 no effect, 100 complete control)
  Velvetleaf plant response rating: 100
Velvetleaf [4]; [10]
  Velvetleaf plant response rating: 100
Barnyardgrass [5]
  Plant response rating, Barnyardgrass: 90
ryegrass, Italian
  Plant response rating (scale of 0 to 100), Ryegrass, Italian: 95
ryegrass, Italian; [11]
  Ryegrass, Italian plant response rating: 85
ryegrass, Italian; [12]
  Ryegrass, Italian plant response rating: 95
ryegrass, Italian; [13]
  Ryegrass, Italian plant response rating: 95
corn
  Plant response rating (scale of 0 to 100), Corn: 95
corn; [11]
  Corn plant response rating: 65
corn; [13]
  Corn plant response rating: 80
crabgrass, large
  Plant response rating (scale of 0 to 100), Crabgrass, Large: 100
crabgrass, large; [11]
  Crabgrass, Large plant response rating: 100
crabgrass, large; [12]
  Crabgrass, Large plant response rating: 100
crabgrass, large; [13]
  Crabgrass, Large plant response rating: 100
foxtail, giant [6]
  Plant response rating (scale of 0 to 100), Foxtail, Giant: 100
foxtail, giant [6]; [11]
  Foxtail, Giant plant response rating: 100
foxtail, giant [6]; [12]
  Foxtail, Giant plant response rating: 100
foxtail, giant [6]; [13]
  Foxtail, Giant plant response rating: 100
johnsongrass
  Plant response rating (scale of 0 to 100), Johnsongrass: 100
johnsongrass; [11]
  Johnsongrass plant response rating: 80
johnsongrass; [12]
  Johnsongrass plant response rating: 95
johnsongrass; [13]
  Johnsongrass plant response rating: 100
ragweed
  Plant response rating (scale of 0 to 100), Ragweed: 98
ragweed; [11]
  Ragweed plant response rating: 98
ragweed; [12]
  Ragweed plant response rating: 98
ragweed; [13]
  Ragweed plant response rating: 98
Barnyardgrass [7]
  Plant response rating (scale of 0 to 100), Barnyardgrass: 100
Barnyardgrass [7]; [14]
  Barnyardgrass plant response rating: 98
Barnyardgrass [7]; [12]
  Barnyardgrass plant response rating: 100
Barnyardgrass [7]; [13]
  Barnyardgrass plant response rating: 100
Oilseed rape
  Plant response rating (scale of 0 to 100), Oilseed Rape: 100
Oilseed rape; [11]
  Oilseed Rape plant response rating: 95
Oilseed rape; [12]
  Oilseed Rape plant response rating: 95
Oilseed rape; [13]
  Oilseed Rape plant response rating: 95

## CCCc1cc(C(=O)NCC)nn1Cc1cc(C(F)(F)F)nn1C [Compound 129]
Barnyardgrass [1]; [8]
  Barnyardgrass plant response rating: 90
Barnyardgrass [1]; [9]
  Barnyardgrass plant response rating: 100
foxtail, giant [2]; [8]
  Foxtail, Giant plant response rating: 100
foxtail, giant [2]; [9]
  Foxtail, Giant plant response rating: 100
morningglory; [8]
  Morningglory plant response rating: 100
morningglory; [9]
  Morningglory plant response rating: 100
Velvetleaf [3]; [8]
  Velvetleaf plant response rating: 100
Velvetleaf [3]; [9]
  Velvetleaf plant response rating: 100
Velvetleaf [4]; Postemergence, 500 g ai/ha, 0 to 100 scale (0 no effect, 100 complete control)
  Velvetleaf plant response rating: 100
Velvetleaf [4]; [10]
  Velvetleaf plant response rating: 90
Barnyardgrass [5]
  Plant response rating, Barnyardgrass: 40
ryegrass, Italian
  Plant response rating (scale of 0 to 100), Ryegrass, Italian: 95
ryegrass, Italian; [11]
  Ryegrass, Italian plant response rating: 5
ryegrass, Italian; [12]
  Ryegrass, Italian plant response rating: 90
ryegrass, Italian; [15]
  Plant response rating, Ryegrass, Italian: 95
corn
  Plant response rating (scale of 0 to 100), Corn: 65
corn; [11]
  Corn plant response rating: 0
corn; [12]
  Corn plant response rating: 15
corn; [15]
  Plant response rating, Corn: 55
crabgrass, large
  Plant response rating (scale of 0 to 100), Crabgrass, Large: 100
crabgrass, large; [11]
  Crabgrass, Large plant response rating: 90
crabgrass, large; [12]
  Crabgrass, Large plant response rating: 100
crabgrass, large; [15]
  Plant response rating, Crabgrass, Large: 100
foxtail, giant [6]
  Plant response rating (scale of 0 to 100), Foxtail, Giant: 100
foxtail, giant [6]; [11]
  Foxtail, Giant plant response rating: 100
foxtail, giant [6]; [12]
  Foxtail, Giant plant response rating: 100
foxtail, giant [6]; [15]
  Plant response rating, Foxtail, Giant: 100
johnsongrass
  Plant response rating (scale of 0 to 100), Johnsongrass: 100
johnsongrass; [11]
  Johnsongrass plant response rating: 10
johnsongrass; [12]
  Johnsongrass plant response rating: 70
johnsongrass; [15]
  Plant response rating, Johnsongrass: 98
ragweed
  Plant response rating (scale of 0 to 100), Ragweed: 100
ragweed; [11]
  Ragweed plant response rating: 85
ragweed; [12]
  Ragweed plant response rating: 90
ragweed; [15]
  Plant response rating, Ragweed: 98
Barnyardgrass [7]
  Plant response rating (scale of 0 to 100), Barnyardgrass: 100
Barnyardgrass [7]; [14]
  Barnyardgrass plant response rating: 95
Barnyardgrass [7]; [12]
  Barnyardgrass plant response rating: 100
Barnyardgrass [7]; [15]
  Plant response rating, Barnyardgrass: 100
Oilseed rape
  Plant response rating (scale of 0 to 100), Oilseed Rape: 100
Oilseed rape; [11]
  Oilseed Rape plant response rating: 95
Oilseed rape; [12]
  Oilseed Rape plant response rating: 95
Oilseed rape; [15]
  Plant response rating, Oilseed Rape: 100
